Measured values reported in patent EP0193257A1, “Control of micro-organisms in water-containing compositions” (NIPA LABORATORIES, LTD., priority 1985, dated 1986).

Columns and labels:
[1] = tested on: mixed culture of 6 species of Gram negative bacteria; test: Survivor plate count in commercial shampoo after challenge; assay type: cell-based
Procedure: A sample of a commercial shampoo preparation (without preservative) was divided into three portions and, to a first portion of this shampoo, the following preservative system was added: • 0.3% (w/w) of a 30% w/w solution of DCHB in propylene glycol (resulting in a concentration of 0.09% of active DCHB).
To a further portion of the unpreserved shampoo, 0.3% (w/w) propylene glycol alone was added to ensure any observed bactericidal effect was due to DCHB.
20g portions of the unpreserved shampoo and the shampoo with the above additions were inoculated with 0.4 ml of a mixed culture of 6 species of Gram negative bacteria (including an isolate from a contaminated shampoo) to give an initial inoculum level of 2.14 x 10^7 colony forming units per g.
The inoculated samples were mixed by Vortex mixer and stored at room temperature. At regular timed intervals after challenge the total number of survivors in each sample portion were determined by serial dilution and plate counting (Nutrient Agar, 32°C) with the following results: […]

[2] = tested on: mixed culture of 7 strains of Gram negative bacteria; test: Survivor plate count in shampoo formulation after challenge; assay type: cell-based; settings: shampoo with 0.20% of 30% DCHB in propylene glycol (0.06% active DCHB)
Procedure: A shampoo formulation was prepared to the following formula: […]
Various additions were made to portions of this shampoo in sterile bottles under aseptic conditions, as follows: • 1. 0.20% of 30% DCHB in propylene glycol (0.06% active DCHB) • 2. 0.20% of 30% DCHB in propylene glycol + 0.05% citric acid • 3. 0.05% citric acid (control 1) • 4. No addition (control 2)
Each of these systems was inoculated with a mixed culture of 7 strains of Gram negative bacteria, at an initial inocullum level of 9.0x10^7 colony forming units per g. At 30 mins, 1 hour, 2 hours, 6 hours, 24 hours and 7 days after inoculation the total number of survivors in each sample portion were determined by serial dilution and plate counting; with the following results: […]

[3] = Storage stability in shampoos, aqueous solutions and creams; assay type: physicochemical; settings: 0.3% (w/w) in shampoos, 25°C, in the light and in dark, seven months
Procedure: Samples of shampoos, aqueous solutions and creams with and without addition of DCHB at 0.3% (w/w) have been stored at 25°C, in the light and in dark, for seven months and have been assessed for visual colour change and for DCHB content, by UV analysis, at regular intervals.

[4] = Antimicrobial activity in the presence of proteins; settings: proteins such as serum and soluble collagen
Acute oral toxicity = settings: rat, in vivo, rats
Source text: It is important that preservatives added to toiletry, household and pharmaceutical products have a low order of toxicity.

[5] = commercial shampoo + 0.3% of 30% DCHB in propylene glycol (0.09% active DCHB)

O=Cc1cc(Cl)c(O)c(Cl)c1 [DCHB, 3,5-Dichloro-4-hydroxybenzaldehyde]
Gram negative bacteria - Mixed Culture Colony forming units/g after: 1 day [1, 5]: <10 Colony forming units/g
Gram negative bacteria - Mixed Culture Colony forming units/g after: 7 days [1, 5]: <10 Colony forming units/g
Gram negative bacteria - Mixed Culture Colony forming units/g after: 14 days [1, 5]: <10 Colony forming units/g
Gram negative bacteria - Mixed Culture Colony forming units/g after: 28 days [1, 5]: <10 Colony forming units/g
Gram negative bacteria - Mixed Culture Colony forming units/g after: 3 hours ([1]; commercial shampoo + 0.3% of 30% DCHB in propylene glycol (0.09% active DCHB), initial inoculum 2.14 x 10^7 colony forming units per g): 9.0x10^6 Colony forming units/g
bactericidal effect against normally resistant gram negative bacteria ([1]; shampoo containing 0.3 % of 30 % DCHB in propylene glycol): rapid and satisfactory bactericidal effect
Mixed culture - colony forming units/g after: 1 hour [2]: 3.0x10^6 colony forming units/g
Mixed culture - colony forming units/g after: 2 hours [2]: 6.6x10^5 colony forming units/g
Mixed culture - colony forming units/g after: 6 hours [2]: 7.0x10^5 colony forming units/g
Mixed culture - colony forming units/g after: 24 hours [2]: 8.4x10^4 colony forming units/g
Mixed culture - colony forming units/g after: 7 days [2]: 10 colony forming units/g
Mixed culture - colony forming units/g after: 30 mins ([2]; initial inoculum 9.0x10^7 colony forming units per g): 3.9x10^6 colony forming units/g
DCHB content, by UV analysis (UV absorption readings) [3]: no significant change
visual colour change [3]: no colour changes
antimicrobial activity in the presence of proteins [4]: retaining antimicrobial activity
LD50 (Acute oral toxicity): > 5000 mg/kg
